According to PubChem BioAssay AID849 (SRMLSC, 2007):
pIC50: −log10 of the molar value. Active and inactive are the calls of the source. How the calls were made is not given here.

Tested on: Saccharomyces cerevisiae lifespan shortening, growth inhibition
Assay: yeast lifespan shortening compounds, dose response (AID 849);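 further: yeast growth read as optical density after two days at 30 degrees C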

SMILES | pIC50 | IC50
C=CCn1cnc2c(c1=O)c1nc3ccccc3nc1n2/N=C/c1cc(OC)c(OC)c(OC)c1 | 4.43 | –
Brc1ccccc1-c1nnc(CSc2nnc3sc4ccccc4n23)o1 | – | > 100 µM (inactive)
O=C(O)CCSc1nnc(-c2ccccc2)n1-c1ccccc1 | – | > 100 µM (inactive)
Cn1c(=O)c2nc(-c3ccccc3)oc2c2ccccc21 | – | > 100 µM (inactive)
Oc1cccc(C=NCc2ccccc2)c1O | 5.04 | –
O=C(O)CCC(=O)N1CCN(c2nc(-c3ccccc3Cl)c3cc(Br)ccc3n2)CC1 | 4.53 | –
CCc1ccc(S(=O)(=O)NCCc2cn3ccsc3n2)s1 | – | > 100 µM (inactive)
COc1cc(/C=N/N(C)c2ccccc2)cc(Cl)c1O | – | > 100 µM (inactive)
Cc1nc2ccccc2c2c1C(=O)N(C)C2=O | 4.96 | –
CCCCCCOC(=O)Sc1nc2ccccc2o1 | 4.69 | –
CCN1/C(=C/C=C/C=C/c2sc3ccccc3[n+]2CC)Sc2ccccc21 | 4.67 | –
O=C(c1ccc(C(=O)N2CCCc3ccccc32)s1)N1CCCc2ccccc21 | 4.45 | –
Cc1ccc(O)c(-c2cc(-c3ccccc3C)[nH]n2)c1 | 4.61 | –
COc1ccc(N/N=C(\C#N)C(N)=O)cc1 | – | > 100 µM (inactive)
CNC(=S)N/N=C(\C)c1ccc(N2CCOCC2)cc1 | – | > 100 µM (inactive)
Cc1nc2cc3ccccc3cc2c(=O)[nH]1 | – | > 100 µM (inactive)
O=C(/C=C/c1ccccc1Cl)c1ccccc(=O)c1O | 5.01 | –
CCC(C)/C(C)=N/NC(=O)c1ccc(COc2ccc(Cl)c(C)c2)cc1 (stereo unspecified) | 4.66 | –
CC(=O)Oc1ccc(N2C(=O)C3C(C2=O)C2(C)C=CC3(C)O2)cc1 (stereo unspecified) | – | > 100 µM (inactive)
Oc1ccccc1NCC(O)Cn1ccc2ccccc21 (stereo unspecified) | – | > 100 µM (inactive)
Fc1ccc2nc3[nH]c4ccccc4c3nc2c1 | 4.40 | –
O=C1c2cccc3cccc(c23)C(=O)N1c1cccnc1 | 4.53 | –
O=[N+]([O-])c1ccc(O)c(/C=N/Nc2ccccn2)c1 | 4.51 | –

SMILES | pIC50 | IC50
Cc1ccc(/C=C/C(=O)c2ccccc(=O)c2O)c(C)c1 | 5.35 | –
CCC(=C(c1ccc(OC)cc1)c1ccc(OC)cc1)c1cn(CC(O)CN2CCN(C)CC2)c2ccccc12 (stereo unspecified) | 4.43 | –
CCCOC(=O)c1ccc(Oc2cn[nH]c2-c2ccc(OC)cc2O)cc1 | 4.59 | –
C=CCn1c(C)cc(C(=O)CSc2nnc(NCc3ccccc3)s2)c1C | – | > 100 µM (inactive)
N/C(Cc1ccc(Cl)cc1)=N\OC(=O)c1cccc2ccccc12 | 4.39 | –
CC1(C)Cc2c(C#N)c(N)sc(=S)c2CO1 | – | > 100 µM (inactive)
O=C(O)c1ccc2c3c(ncnc13)-c1ccccc1C2=O | 5.82 | –
Cc1cccc(NC(=O)CC2SC(=O)N(c3ccccc3)C2=O)c1 (stereo unspecified) | – | > 100 µM (inactive)
Fc1ccc(Br)cc1C1C=C(c2cccnc2)Nc2ncnn21 (stereo unspecified) | – | > 100 µM (inactive)
O=c1c(-c2ccc(Cl)cc2)[n+]([O-])c2ccccc2n1O | 5.10 | –
O=[N+]([O-])c1ccc(N/N=C/c2ccc[nH]2)cc1 | – | > 100 µM (inactive)
O=C(c1ccc(Cl)cc1)c1c[nH]c(C(=O)C(Cl)(Cl)Cl)c1 | 4.42 | –
Cc1nn2c3ccccc3nc2c2ccccc12 | 4.38 | –
Cc1ccc(C)c(-n2nnnc2SCC(=O)Nc2cccc(-c3nnc4n3CCCCC4)c2)c1 | – | > 100 µM (inactive)
O=[N+]([O-])c1ccccc1-c1cc(-c2cc(Cl)ccc2O)n[nH]1 | – | > 100 µM (inactive)
CSC1=NSC2=NC(=O)/C(=C/c3coc4ccccc4c3=O)C(=N)N12 | 4.36 | –
c1ccc2nc3ccccc3nc2c1 | 4.78 | –
COc1ccc(NCc2ccc([N+](=O)[O-])s2)c(OC)c1 | 4.39 | –
O=C(COc1ccccc1)N1CCN=C1SCc1cccnc1 | – | > 100 µM (inactive)
CCc1cc(-c2n[nH]c(C)c2Oc2ccc(C(C)C)cc2)c(O)cc1O | 4.50 | –
O=C(NC1CCCCC1)Sc1ccc(Cl)cc1 | – | > 100 µM (inactive)
c1cncc(-c2nnc(-c3cccnc3)nn2)c1 | 4.59 | –
Cc1ccc(/C=C/C(=O)c2ccccc(=O)c2O)cc1C | 5.28 | –
